Where no end group is shown, it is not given here.
Legend:
spermatozoa = details: cited from earlier work
[1] = Decomposition of the kinins within the organism; details: in vivo
Excerpt: This is unexpected and surprising because the phenothiazines were known heretofore only as substances having an anti-depressive effect. This fact could cause one to conclude, however, that they could affect certain oligopeptides which influence the metabolism and would indirectly, i.e., by inhibiting the decomposition of the kinins, improve the glucose assimilation of the tissue.

resting forearm = experiment: Resting forearm test, 10 milliliter injection into the artery of the arm; type: in vivo, human; details: fraction of 1μ gram in 10 milliliter of 10% glucose solution injected into the artery of the arm, versus kinin-free solution
Excerpt: This illustrates the improved glucose absorption into the tissue of the arm and the muscular system of the hand when the solution of the present invention is employed. Since the effect of this decrease in the glucose level of the blood by the kinin admixture occurs so quickly, it may be assumed that this is caused not by an intensification of the decomposition of the glucose or the metabolism within the cell but by a more rapid penetration of the muscular cell.

Compound	mobility of the spermatozoa (spermatozoa)	decomposition of the kinins within the organism [1]	glucose content in the blood flowing through the vein of the arm (resting forearm)
kallidin: decapeptide kinin differing from Brady kinin only by a lysine residue at the amino end (KRPPGFSPFR; Lysyl-bradykinin; UniProt P01042 380-389, looked up)	further the mobility of the spermatozoa		
CN(C)CCCN1c2ccccc2Sc2ccc(Cl)cc21 [2-chloro-10-(3-dimethylamino-propyl)-phenothiazine]		inhibited significantly	
RPPGFSPFR [Brady kinin, (NH2) arginine - proline - proline - glycine - phenylalanine - serine - proline - phenylalanine - arginine (COOH)]	further the mobility of the spermatozoa		pronounced decrease

Source: patent US4152425A, “Glucose containing infusion solution” (THERA Gesellschaft fur Patentverwertung mbH, priority 1976, dated 1979)
